# Assay results published in article PMC10467108, “Of Seven New K^+ Channel Inhibitor Peptides of Centruroides bonito, α-KTx 2.24 Has a Picomolar Affinity for Kv1.2” (Toxins, 2023).
# Where a SMILES comes first, the peptide text is derived from it. Bridges are numbered along the chain shown (N, C = ends).
# Columns and labels:
# Assay type in all cases: cell-based
# Kv1.3 [1] = target: T1, Kv1.3 (Homo sapiens, UniProt P22001); assay: Whole-cell patch-clamp of Kv1.3 currents in PHA-activated human T lymphocytes
# T1 construct: endogenous in cells
# Method: (§1) Macroscopic Kv1.1 and Kv1.2 currents were measured in transiently transfected CHO cells. For Kv1.3 current recording, human T lymphocytes were activated by Phytohemagglutinin A (PHA) to increase Kv1.3 channel expression, and micro-pipettes were filled with Ca^2+-free solution to prevent KCa3.1 channel activation. K^+ currents were evoked by applying 15-ms-long depolarization pulses to +50 mV from a holding potential of −120 mV except for Kv1.2, as it has highly variable activation kinetics; therefore, 15–500 ms-long pulses were applied to maximize the open probability of Kv1.2 channel. CboK peptide toxins were dissolved in a freshly prepared extracellular solution and applied to the whole-cell patch-clamped cells using a micro perfusion system at 200 μL/min flow rate.
# Isochronal RCF data points obtained this way (isochronal RCF = I4ms/I4ms,0 where I4ms,0 and I4ms are the currents at 4 ms time point in the absence and presence of CboK peptides, respectively) at different toxin concentrations were fitted with the Hill equation to obtain concentration–response curves as shown in Figure 6H.
# Human peripheral venous blood was acquired from anonymous healthy volunteers from the blood bank. Blood samples were collected by having approval from the Ethical Committee of the Hungarian Medical Research Council (36255-6/2017/EKU). PBMCs were separated by Histopaque 1077 (Sigma-Aldrich, Budapest, Hungary) separation technique, and isolated cells, at the density of 5 × 10^5 cells, were cultured in RPMI 1640 media (Gibco, Grand Island, NY, USA) supplemented with 10% FBS (Sigma-Aldrich, Budapest, Hungary), 2 mM L-glutamine, […], and […] penicillin in a humidified incubator at 37 °C and 5% CO2 for 3–6 days. A measure of 2, 5, or 10 μg/mL of Phytohemagglutinin A (PHA) (Sigma-Aldrich, Budapest, Hungary) was added in cultured cells to activate the PBMCs and upregulate the Kv1.3 expression.
# (§2) The patch-clamp technique was used for measuring whole-cell currents in voltage-clamped mode using standard protocols. Electrophysiological recordings were acquired by using Multiclamp 700B amplifier connected to a personnel computer with an Axon Digidata1440 digitizer (Molecular Devices, Sunnyvale, CA, USA). Pipettes were pulled from GC150F-15 borosilicate capillaries (Harvard Apparatus, Kent, UK) having 3−5 MΩ tip resistance in the bath solution. All current recordings were carried out at room temperature (20−25 °C) and only those currents were recorded and subjected to analyses when the leak current at holding potential was <5% of peak current at the test potential. Current traces were lowpass-filtered by utilizing the built-in analog four-pole Bessel filters of the amplifiers and were sampled at 20 kHz which is at least twice the filter cut-off frequency. A gravity-driven perfusion system was used to perfuse the cells with control and test solutions and excess fluid was removed continuously through vacuum suction.
# hKv1.2 = target: T2, hKv1.2 (Homo sapiens, UniProt P16389); assay: Whole-cell patch-clamp of Kv1.2 currents in transiently transfected CHO cells; conditions: Hill fit of RCF vs toxin concentration, n ≥ 3
# T2 construct: GFP (C); host or cells: CHO cells, transient transfection (Lipofectamine 2000)
# Method: as §1
# (§3) CHO cells were transiently transfected by using Lipofectamine 2000 kit (Invitrogen, Carlsbad, CA, USA), as per the manufacturer’s protocol with vector pCMV6-AC-GFP (cat# RG211000 and RC222200; OriGene Technologies, Rockville, MD, USA) encoding hKv1.1 (hKCNA1 gene) or hKv1.2 (hKCNA2 gene) ion channels. Cells were grown under standard conditions in an incubator at 37 °C and 5% CO2 for 24 h. GFP-positive transfected cells were identified by utilizing a Nikon TMS fluorescence microscope (Nikon, Tokyo, Japan) using bandpass filters of 455–495 nm and 515–555 nm for excitation and emission, respectively.
# as §2, with “suction. The extracellular solution (bath solution) contained 145 mM NaCl, 5.5 mM glucose, 5 mM KCl, 2.5 mM CaCl2, 1 mM MgCl2, and 10 mM HEPES, having pH of 7.35 and an osmolarity between 302 and 308 mOsM/L. Toxins were dissolved in bath solution at different molar concentrations and supplemented with 0.1 mg/mL of bovine serum albumin BSA (Sigma-Aldrich, Budapest, Hungary). The intracellular solution (pipette filling) was comprised of 140 mM KF, 2 mM MgCl2, 1 mM CaCl2, 10 mM HEPES, and 11 mM EGTA, with a pH of 7.22 and an osmolarity of ~295 mOsM/L.” for “suction.”
# (§4) Generally, to evoke the Kv1.xcurrents, 15-ms-long depolarization pulses to +50 mV from a holding potential of −120 mV were applied, and the current traces were recorded after every 15 s. However, in the case of Kv1.2, due to its variable activation kinetics, the duration of the depolarization pulse was set between 15 and 500 ms to attain the saturated peak current.
# Kv1.3 [2] = target: T1, Kv1.3; assay: Whole-cell patch-clamp of Kv1.3 currents in PHA-activated human T lymphocytes; conditions: 1 µM toxin, end of 15-ms pulse to 0 mV (Figure 6E)
# hKv1.1 = target: T3, hKv1.1 (Homo sapiens, UniProt Q09470); assay: Whole-cell patch-clamp of Kv1.1 currents in transiently transfected CHO cells
# T3 construct: host or cells: CHO cells, transient transfection (Lipofectamine 2000)
# Method: as §1, §3
# as §2, with “suction. The extracellular solution (bath solution) contained 145 mM NaCl, 5.5 mM glucose, 5 mM KCl, 2.5 mM CaCl2, 1 mM MgCl2, and 10 mM HEPES, having pH of 7.35 and an osmolarity between 302 and 308 mOsM/L. Toxins were dissolved in bath solution at different molar concentrations and supplemented with 0.1 mg/mL of bovine serum albumin BSA (Sigma-Aldrich, Budapest, Hungary). The intracellular solution (pipette filling) was comprised of 140 mM KF, 2 mM MgCl2, 1 mM CaCl2, 10 mM HEPES, and 11 mM EGTA, with a pH of 7.22 and an osmolarity of ~295 mOsM/L.” for “suction.”
# as §4
# T1 sequence (P22001 whole entry): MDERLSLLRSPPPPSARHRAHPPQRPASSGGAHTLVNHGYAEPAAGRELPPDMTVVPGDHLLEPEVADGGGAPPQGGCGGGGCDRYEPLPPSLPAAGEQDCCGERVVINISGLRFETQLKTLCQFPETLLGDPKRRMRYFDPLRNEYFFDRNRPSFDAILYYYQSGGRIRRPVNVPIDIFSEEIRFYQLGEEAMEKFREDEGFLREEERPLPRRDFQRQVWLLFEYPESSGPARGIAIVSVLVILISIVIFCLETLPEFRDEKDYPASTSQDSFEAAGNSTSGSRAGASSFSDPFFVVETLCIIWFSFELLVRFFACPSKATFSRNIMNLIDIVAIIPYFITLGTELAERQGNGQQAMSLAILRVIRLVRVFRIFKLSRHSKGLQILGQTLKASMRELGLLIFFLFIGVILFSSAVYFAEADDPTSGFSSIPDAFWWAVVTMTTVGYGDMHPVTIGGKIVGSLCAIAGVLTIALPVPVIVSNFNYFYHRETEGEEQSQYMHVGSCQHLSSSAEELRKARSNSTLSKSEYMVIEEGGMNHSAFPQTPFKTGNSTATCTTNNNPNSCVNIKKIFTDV
# T3 sequence (Q09470 whole entry): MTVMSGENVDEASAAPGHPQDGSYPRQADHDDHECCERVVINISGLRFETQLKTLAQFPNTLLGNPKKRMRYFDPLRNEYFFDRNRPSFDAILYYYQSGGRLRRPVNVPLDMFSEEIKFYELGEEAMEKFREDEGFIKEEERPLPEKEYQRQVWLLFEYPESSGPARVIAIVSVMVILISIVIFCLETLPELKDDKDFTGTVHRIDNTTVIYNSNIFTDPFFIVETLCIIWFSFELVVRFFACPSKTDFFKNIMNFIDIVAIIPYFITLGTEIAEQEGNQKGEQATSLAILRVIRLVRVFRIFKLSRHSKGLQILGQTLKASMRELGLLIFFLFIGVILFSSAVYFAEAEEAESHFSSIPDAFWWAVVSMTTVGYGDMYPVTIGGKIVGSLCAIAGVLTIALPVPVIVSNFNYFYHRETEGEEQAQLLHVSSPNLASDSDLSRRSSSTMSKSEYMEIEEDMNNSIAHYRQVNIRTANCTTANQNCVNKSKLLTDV
# T2 sequence (P16389 whole entry): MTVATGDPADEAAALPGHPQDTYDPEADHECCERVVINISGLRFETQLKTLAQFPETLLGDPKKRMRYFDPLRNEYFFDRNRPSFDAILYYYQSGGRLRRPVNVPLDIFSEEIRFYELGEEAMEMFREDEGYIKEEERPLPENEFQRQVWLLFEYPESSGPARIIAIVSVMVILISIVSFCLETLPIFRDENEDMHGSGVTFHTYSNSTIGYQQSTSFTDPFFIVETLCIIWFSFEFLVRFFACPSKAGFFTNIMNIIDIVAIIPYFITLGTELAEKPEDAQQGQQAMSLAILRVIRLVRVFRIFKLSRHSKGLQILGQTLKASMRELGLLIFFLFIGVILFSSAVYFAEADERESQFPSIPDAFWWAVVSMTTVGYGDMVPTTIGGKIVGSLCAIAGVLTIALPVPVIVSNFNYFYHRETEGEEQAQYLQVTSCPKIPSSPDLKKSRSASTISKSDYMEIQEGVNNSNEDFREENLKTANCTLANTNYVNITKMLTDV
smiles,measurement,setting,value
"CC[C@H](C)[C@@H]1NC(=O)[C@@H]2CSSC[C@H](NC(=O)[C@@H](NC(=O)[C@@H](N)[C@@H](C)O)C(C)C)C(=O)N[C@@H](C(C)C)C(=O)N[C@@H](Cc3ccc(O)cc3)C(=O)N[C@@H](CCCNC(=N)N)C(=O)N[C@@H]([C@@H](C)O)C(=O)N[C@H]3CSSC[C@H](NC(=O)[C@H](C)NC(=O)[C@H](CC(N)=O)NC(=O)[C@H](CC(N)=O)NC1=O)C(=O)N[C@@H](CCCCN)C(=O)N[C@H](C(=O)N[C@@H](Cc1ccc(O)cc1)C(=O)N1CCC[C@H]1C(=O)N[C@@H](Cc1ccc(O)cc1)C(=O)O)CSSC[C@H](NC(=O)[C@H](CC(=O)O)NC(=O)[C@H](CCCCN)NC(=O)[C@H](CC(=O)O)NC3=O)C(=O)N[C@@H](CCCCN)C(=O)N[C@@H](CCCNC(=N)N)C(=O)N[C@@H](CCCNC(=N)N)C(=O)NCC(=O)N[C@@H](Cc1ccc(O)cc1)C(=O)N[C@@H](CCCNC(=N)N)C(=O)N[C@@H](CO)C(=O)NCC(=O)N[C@@H](CCCCN)C(=O)N2 [CboK2] (H-TVCVYRTCDKDCKRRGYRSGKCINNACKCYPY-OH; disulfide 3-22, 8-27, 12-29)",remaining current fraction (RCF) of Kv1.3 at +50 mV,"Kv1.3 [1]; 1 µM toxin, end of 15-ms pulse to +50 mV (Figure 6C)",~ 0.34
same,"Hill coefficient H, Kv1.3 block","Kv1.3 [1]; Hill fit of isochronal RCF (4 ms), n ≥ 3",0.8
same,Kd,"Kv1.3 [1]; Hill fit of isochronal RCF (current at 4 ms), 15-ms pulses to +50 mV from -120 mV, n ≥ 3, read-out: Kd for Kv1.3",171 nM
same,Kd,"hKv1.2; cumulative application, equilibrium block, pulses to +50 mV from -120 mV, read-out: Kd for Kv1.2",0.763 nM
same,"Hill coefficient H, Kv1.2 block",hKv1.2,1.5
same,remaining current fraction (RCF) of Kv1.3 at 0 mV,Kv1.3 [2],~ 0.23
same,effect on Kv1.1 currents,hKv1.1; 100 nM toxin,did not block
same,Kd,"hKv1.1; this study, screened at 100 nM, read-out: Kd Values Kv1.1 (symbol)",> 100 nM
